One series is described as follows: cells. The settings on record: Homo sapiens, Leukemia cell, 72 h.
Series [1] has as its system TF-1. In words: cells. To be noted: Homo sapiens, TF-1, 72 h.
Description: Cytotoxicity against human TF1 cells expressing wild type c-KIT assessed as cell viability after 72 hrs by resazurin dye based fluorescence assay
The test system of series [2] is TF-1. Briefly: cells. The settings on record: Homo sapiens, TF-1, 72 h. This is another data set of the same source.
Description: Cytotoxicity against human TF1 cells expressing FMS assessed as cell viability after 72 hrs by resazurin dye based fluorescence assay
In series [3] the test system is MV4-11. In words: cells. The settings on record: Homo sapiens, MV4-11, 72 h.
Description: Cytotoxicity against human MV4-11 cells expressing FLT3-ITD mutation assessed as cell viability after 72 hrs by resazurin dye based fluorescence assay
Series [4] has as its system Mus musculus. In words: Antitumor activity against mouse BA/F3 cells expressing FLT3-ITD mutant xenografted in BALB/c mouse myeloproliferative model assessed as reduction of phosphorylated Stat5 level in spleen administered qd for 2 days measured after 8 hrs by immunohistochemistry analysis. Format: functional, organism-based. The settings on record: BaF3.
Series [5] relates to BaF3. Briefly: Antitumor activity against mouse BA/F3 cells expressing FLT3-ITD mutant xenografted in BALB/c mouse myeloproliferative model assessed as increase in host survival days at 0.05 mg/kg, po qd relative to control (reference value: 20 days). The series is classed as functional, organism-based. The arrangement: dose 0.05 mg/kg.
The test system of series [6] is Mus musculus. In words: Plasma concentration at steady state in BALB/c mouse xenografted with BA/F3 cells expressing FLT3-ITD mutant at 0.25 mg/kg, po qd. The series is classed as ADME, organism-based, BaF3. More on the design: dose 0.25 mg/kg, route oral. To be noted: in vivo.
Series [7] deals with T1, Receptor-type tyrosine-protein kinase FLT3 (Homo sapiens, UniProt P36888, ITD). In words: Inhibition of FLT3 ITD mutant mediated Stat5 phosphorylation in human MV4-11 cells by immunoblot analysis. The series is classed as cell-based. For orientation: A western blot detects proteins with antibodies after separation by electrophoresis.
The target in series [8] is T2, Tyrosine-protein kinase receptor UFO (Homo sapiens, UniProt P30530).
T2 sequence (P30530 whole entry): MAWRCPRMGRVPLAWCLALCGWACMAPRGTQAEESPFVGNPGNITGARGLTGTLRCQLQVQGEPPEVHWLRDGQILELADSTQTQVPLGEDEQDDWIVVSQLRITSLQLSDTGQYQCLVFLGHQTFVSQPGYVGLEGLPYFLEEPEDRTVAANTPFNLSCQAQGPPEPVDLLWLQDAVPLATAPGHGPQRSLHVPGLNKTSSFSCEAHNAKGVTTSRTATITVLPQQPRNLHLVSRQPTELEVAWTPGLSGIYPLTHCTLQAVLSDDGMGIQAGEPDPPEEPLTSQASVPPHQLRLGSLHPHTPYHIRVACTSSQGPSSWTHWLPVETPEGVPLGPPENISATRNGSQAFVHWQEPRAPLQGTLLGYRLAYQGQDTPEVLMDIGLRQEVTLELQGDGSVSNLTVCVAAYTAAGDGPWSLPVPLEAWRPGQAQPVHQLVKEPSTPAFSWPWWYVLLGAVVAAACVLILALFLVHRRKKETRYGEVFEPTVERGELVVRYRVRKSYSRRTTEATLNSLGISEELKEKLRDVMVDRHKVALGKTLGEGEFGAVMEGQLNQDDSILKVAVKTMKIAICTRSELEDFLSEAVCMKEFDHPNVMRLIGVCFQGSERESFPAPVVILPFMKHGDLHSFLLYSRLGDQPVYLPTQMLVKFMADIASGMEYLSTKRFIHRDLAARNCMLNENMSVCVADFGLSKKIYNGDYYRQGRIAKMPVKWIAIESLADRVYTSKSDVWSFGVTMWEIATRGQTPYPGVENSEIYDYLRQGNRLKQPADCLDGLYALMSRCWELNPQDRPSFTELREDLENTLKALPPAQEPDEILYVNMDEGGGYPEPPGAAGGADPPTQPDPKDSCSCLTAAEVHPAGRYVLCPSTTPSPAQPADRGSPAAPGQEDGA
Briefly: Inhibition of AXL.

For series [9], the system named is BaF3. In words: Antitumor activity against mouse BA/F3 cells expressing FLT3-ITD mutant xenografted in BALB/c mouse myeloproliferative model assessed as increase in host survival days at 5 mg/kg, po qd relative to control (reference value: 20 days). Format: functional, organism-based. The arrangement: dose 5 mg/kg.
The test system of series [10] is BaF3. In words: Antitumor activity against mouse BA/F3 cells expressing FLT3-ITD mutant xenografted in BALB/c mouse myeloproliferative model assessed as increase in host survival days at 1 mg/kg, po qd relative to control (reference value: 20 days). The series is classed as functional, organism-based. The arrangement: dose 1 mg/kg.
Series [11] has as its system BaF3. In words: Antitumor activity against mouse BA/F3 cells expressing FLT3-ITD mutant xenografted in BALB/c mouse myeloproliferative model assessed as increase in host survival days administered by oral gavage qd relative to control. Format: functional.
The nature of series [12]: Half life in BALB/c mouse. The settings on record: in vivo. The series is classed as ADME, organism-based.
For series [13], the species on record is Mus musculus. In words: Toxicity in BALB/c mouse assessed as signs of neutropenia after 100 days. Format: organism-based. The settings on record: in vivo, 2400 h.
Series [14] relates to Mus musculus. In words: Plasma concentration at steady state in BALB/c mouse xenografted with BA/F3 cells expressing FLT3-ITD mutant at 0.05 mg/kg, po qd. Format: ADME, organism-based, BaF3. More on the design: dose 0.05 mg/kg, route oral. The settings on record: in vivo.
Series [15] deals with T3, Receptor-type tyrosine-protein kinase FLT3 (Homo sapiens, UniProt P36888).
T3 sequence (P36888 whole entry): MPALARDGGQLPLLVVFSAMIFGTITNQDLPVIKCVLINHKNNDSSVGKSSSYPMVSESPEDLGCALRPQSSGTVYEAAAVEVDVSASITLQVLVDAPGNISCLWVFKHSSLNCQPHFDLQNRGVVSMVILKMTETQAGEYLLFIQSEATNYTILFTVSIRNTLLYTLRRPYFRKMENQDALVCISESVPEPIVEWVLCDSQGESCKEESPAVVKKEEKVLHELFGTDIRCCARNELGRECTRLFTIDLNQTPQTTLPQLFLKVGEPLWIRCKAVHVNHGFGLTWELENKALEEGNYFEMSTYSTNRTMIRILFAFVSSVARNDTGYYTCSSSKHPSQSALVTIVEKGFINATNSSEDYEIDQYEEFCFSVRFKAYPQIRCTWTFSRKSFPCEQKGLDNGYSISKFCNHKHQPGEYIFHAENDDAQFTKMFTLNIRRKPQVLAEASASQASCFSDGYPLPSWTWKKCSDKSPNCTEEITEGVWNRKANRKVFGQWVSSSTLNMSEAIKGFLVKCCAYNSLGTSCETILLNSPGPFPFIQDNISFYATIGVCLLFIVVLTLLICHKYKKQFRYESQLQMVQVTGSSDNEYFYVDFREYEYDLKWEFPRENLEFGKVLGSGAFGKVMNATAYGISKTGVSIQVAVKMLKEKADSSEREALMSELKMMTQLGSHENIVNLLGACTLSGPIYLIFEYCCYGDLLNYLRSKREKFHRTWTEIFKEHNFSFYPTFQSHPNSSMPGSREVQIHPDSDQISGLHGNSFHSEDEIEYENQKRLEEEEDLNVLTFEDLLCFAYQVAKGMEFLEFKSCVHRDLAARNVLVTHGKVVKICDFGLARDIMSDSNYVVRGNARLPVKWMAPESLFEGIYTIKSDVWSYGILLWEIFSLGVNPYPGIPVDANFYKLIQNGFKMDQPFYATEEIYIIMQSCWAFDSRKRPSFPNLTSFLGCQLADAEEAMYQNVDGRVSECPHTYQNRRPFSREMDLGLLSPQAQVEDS
In words: Inhibition of human recombinant FLT3 by radiometric assay.

Series [16] concerns the target T1, Receptor-type tyrosine-protein kinase FLT3. Briefly: Inhibition of FLT3 ITD mutant mediated ERK 1/2 phosphorylation in human MV4-11 cells by immunoblot analysis. The series is classed as cell-based.
Series [17] has as its system MV4-11. In words: Induction of apoptosis in human MV4-11 cells at 100 nM assessed as late apoptotic cells after 48 hrs by annexin V and propidium iodide staining method (reference value: 3.4 %). Format: functional.

In general, IC50 refers to the point on the concentration scale where inhibition reaches its midpoint. Low values mean inhibition by little substance, high ones a need for much substance. The term Ki denotes the equilibrium dissociation constant of an inhibitor or competing ligand from its target. The term half-life denotes the time in which the quantity being followed falls by half. Higher therefore signals slow decline.

Where only a bound is given, the exact number is not on record here.

As to `Nc1nc(Nc2ccc([C@H]3CC[C@H](N4CCOCC4)CC3)cc2)nn1-c1ccccn1`, the IC50 in “cells” was 220 nM; in the series with TF-1 [1], 1.6 nM; in the series on TF-1 [2] it was above 4000 nM; in the series on MV4-11 [3] it was 0.2 nM; in series [7] it was 1.3 nM; in series [16] it was 1.3 nM. The Activity entry in the series with Mus musculus [4] is “Dose-dependent effect”; in the series on BaF3 [11] it was “Dose-dependent effect”; in the series listed under Mus musculus [13] it was “Non-toxic”; with MV4-11 [17] it was 42.8%. In addition, the MSD in the series on BaF3 [5] worked out at 24 days; in the series on BaF3 [9] it was 62 days; with BaF3 [10] it was 34 days. Besides, the Cpss in the series on Mus musculus [6] was found to be 22 ng/mL; in the series with Mus musculus [14] it was 4 ng/mL. The Ki in series [8] amounted to 40 nM; in [15] it was 0.17 nM. The molecule further showed a half-life in series [12] of 15 h.

Source of the values: ChEMBL document CHEMBL1955771, “VX-322: a novel dual receptor tyrosine kinase inhibitor for the treatment of acute myelogenous leukemia” (J Med Chem, 2012).
